From patent US20160244437A1, “SUBSTITUTED PHENYLALANINE DERIVATIVES” (BAYER PHARMA AKTIENGESELLSCHAFT, priority 2013, published 2016) come the findings set out here.

Where a name gives a salt, the structure may show the parent alone.

One assay addresses T1, human factor XIa (Homo sapiens, UniProt P03951).
T1 construct: purchased Kordia
In words: Measurement of FXIa inhibition (fluorogenic peptide substrate Boc-Glu(OBzl)-Ala-Arg-AMC). It is filed as biochemical. The note with it: factor XIa from Kordia 0.45 nM, 15 min pre-incubation, 30 min at 22° C., fluorescence. The procedure: The factor XIa inhibition of the substances according to the invention is determined using a biochemical test system which utilizes the reaction of a peptidic factor XIa substrate to determine the enzymatic activity of human factor XIa. Here, factor XIa cleaves from the peptic factor XIa substrate the C-terminal aminomethylcoumarin (AMC), the fluorescence of which is measured. The determinations are carried out in microtitre plates.
Test substances are dissolved in dimethyl sulphoxide and serially diluted in dimethyl sulphoxide (3000 μM to 0.0078 μM; resulting final concentrations in the test: 50 μM to 0.00013 μM). In each case 1 μl of the diluted substance solutions is placed into the wells of white microtitre plates from Greiner (384 wells). Subsequently, the following are added successively: 20 μl of assay buffer (50 mmol/l Tris buffer pH 7.4; 100 mmol/l sodium chloride; 5 mmol/l calcium chloride; 0.1% bovine serum albumin) and 20 μl of factor XIa from Kordia (0.45 nM in assay buffer). After 15 min of incubation, the enzyme reaction is started by addition of 20 μl of the factor XIa substrate Boc-Glu(OBzl)-Ala-Arg-AMC dissolved in assay buffer (10 μM in assay buffer) from Bachem, the mixture is incubated at room temperature (22° C.) for 30 min and fluorescence is then measured (excitation: 360 nm, emission: 460 nm). The measured emissions of the test batches with test substance are compared to those of control batches without test substance (only dimethyl sulphoxide instead of test substance in dimethyl sulphoxide), and IC50 values are calculated from the concentration/activity relationships.

The test system of the next assay is human and animal plasma. Nature of the assay: Determination of anticoagulatory activity: activated partial thromboplastin time (aPTT) in plasma. As to conditions: concentration of test substance which brings about a 1.5-fold extension of the aPTT; plasma in vitro, C.K. Prest kit. How it is done: The anticoagulatory activity of the test substances is determined in vitro in human and animal plasma (for example mouse, rat, rabbit, pig and dog plasma). To this end, blood is drawn off in a mixing ratio of sodium citrate/blood of 1:9 using a 0.11 molar sodium citrate solution as receiver. Immediately after the blood has been drawn off, it is mixed thoroughly and centrifuged at about 4000 g for 15 minutes. The supernatant is pipetted off.
The activated partial thromboplastin time (aPTT) is determined in the presence of varying concentrations of test substance or the corresponding solvent using a commercial test kit (C.K. Prest from Diagnostica Stago). The test compounds are incubated with the plasma and the PTT reagent (cephalin, kaolin) at 37° C. for 3 minutes. Coagulation is then started by addition of a 25 mM aqueous calcium chloride solution, and the time when coagulation occurs is determined. The concentration of test substance which brings about a 1.5-fold extension of the aPTT is determined.

T1 sequence (P03951 388-625 limits assumed): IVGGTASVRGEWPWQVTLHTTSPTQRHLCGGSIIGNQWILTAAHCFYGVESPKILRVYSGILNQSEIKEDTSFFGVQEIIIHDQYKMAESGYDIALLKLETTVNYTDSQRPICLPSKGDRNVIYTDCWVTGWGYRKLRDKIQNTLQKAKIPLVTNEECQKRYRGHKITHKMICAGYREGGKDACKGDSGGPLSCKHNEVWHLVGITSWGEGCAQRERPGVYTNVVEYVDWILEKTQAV
T1 sequence (P03951 19-387 partner limits assumed): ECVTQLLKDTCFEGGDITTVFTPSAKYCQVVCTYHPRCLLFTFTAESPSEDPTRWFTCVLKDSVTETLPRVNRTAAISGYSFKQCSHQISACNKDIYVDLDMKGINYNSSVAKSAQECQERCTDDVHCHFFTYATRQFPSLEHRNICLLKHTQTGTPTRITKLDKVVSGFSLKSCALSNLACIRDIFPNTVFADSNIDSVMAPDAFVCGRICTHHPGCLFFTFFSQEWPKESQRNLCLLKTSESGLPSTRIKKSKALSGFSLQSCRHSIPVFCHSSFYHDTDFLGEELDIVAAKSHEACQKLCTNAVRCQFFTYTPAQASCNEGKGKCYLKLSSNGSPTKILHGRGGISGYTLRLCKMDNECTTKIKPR

As usually defined, the IC50 is the concentration needed to halve the response being measured. Low values mean inhibition by little substance, high ones a need for much substance. Take `CC(=O)Nc1ncc(-c2cccc(C[C@H](NC(=O)[C@H]3CC[C@H](CN)CC3)C(=O)Nc3ccc(-c4nnn[nH]4)cc3)c2)c(C)n1` [Example 94, 3-[2-(Acetylamino)-4-methylpyrimidin-5-yl]-N-alpha-{[trans-4-(aminomethyl)cyclohexyl]-carbonyl}-N-[4-(1H-tetrazol-5-yl)phenyl]-L-phenylalaninamide hydrochloride]: on human factor XIa, the IC50 was found to be 5.4 nM. This compound gave an aPTT in the assay with human and animal plasma of 0.23 µmol/L.
The corresponding values for `Cc1nc(O)ccc1-c1cccc(C[C@H](NC(=O)[C@H]2CC[C@H](CN)CC2)C(=O)Nc2ccc(-c3nnn[nH]3)cc2)c1` [Example 98, N-alpha-{[trans-4-(Aminomethyl)cyclohexyl]carbonyl)}-3-(6-hydroxy-2-methylpyridin-3-yl)-N-[4-(1H-tetrazol-5-yl)phenyl]-L-phenylalaninamide hydrochloride] are 5.4 nM and 0.2 µmol/L.
The corresponding values for `COCCOCCOCCNC(=O)c1cccc(-c2cc(C[C@H](NC(=O)[C@H]3CC[C@H](CN)CC3)C(=O)Nc3ccc(-c4nnn[nH]4)cc3)ccc2C)c1` [Example 18, 5′-[(2S)-2-({[trans-4-(Aminomethyl)cyclohexyl]carbonyl}amino)-3-oxo-3-{[4-(1H-tetrazol-5-yl)phenyl]amino}propyl]-N-{2-[2-(2-methoxyethoxy)ethoxy]ethyl}-2′-methylbiphenyl-3-carboxamide hydrochloride] are 5.7 nM and 0.4 µmol/L.
The corresponding values for `NC[C@H]1CC[C@H](C(=O)N[C@@H](Cc2cccc(-c3ccc(C(=O)NCCN4CCCC4)cc3)c2)C(=O)Nc2ccc(-c3nnn[nH]3)cc2)CC1` [Example 41, 3′-[(2S)-2-({[trans-4-(Aminomethyl)cyclohexyl]carbonyl}amino)-3-oxo-3-{[4-(1H-tetrazol-5-yl)phenyl]amino}propyl]-N-[2-(pyrrolidin-1-yl)ethyl]biphenyl-4-carboxamide hydrochloride] are 8.4 nM and 0.32 µmol/L.
In the case of `COCCOCCOCCNC(=O)c1ccc(C)c(-c2cccc(C[C@H](NC(=O)[C@H]3CC[C@H](CN)CC3)C(=O)Nc3ccc(-c4nnn[nH]4)cc3)c2)c1` [Example 20, 3′-[(2S)-2-({[trans-4-(Aminomethyl)cyclohexyl]carbonyl}amino)-3-oxo-3-{[4-(1H-tetrazol-5-yl)phenyl]amino}propyl]-N-{2-[2-(2-methoxyethoxy)ethoxy]ethyl}-6-methylbiphenyl-3-carboxamide hydrochloride], the IC50 against human factor XIa was 1.8 nM. This compound yielded an aPTT with human and animal plasma of 0.24 µmol/L.
`NC[C@H]1CC[C@H](C(=O)N[C@@H](Cc2cccc(-c3cccc(S(=O)(=O)NC4CC4)c3)c2)C(=O)Nc2ccc(-c3nnn[nH]3)cc2)CC1` [Example 6, trans-4-(Aminomethyl)-N-[(2S)-3-[3′-(cyclopropylsulphamoyl)biphenyl-3-yl]-1-oxo-1-{[4-(1H-tetrazol-5-yl)phenyl]amino}propan-2-yl]cyclohexanecarboxamide hydrochloride] came in with an IC50 at human factor XIa of 1.9 nM. In the assay on human and animal plasma, this compound showed an aPTT of 0.27 µmol/L.
Compound `NC[C@H]1CC[C@H](C(=O)N[C@@H](Cc2cccc(-c3ccc(C(=O)N4CCN(CCO)CC4)cc3)c2)C(=O)Nc2ccc(-c3nnn[nH]3)cc2)CC1` [Example 48, trans-4-(Aminomethyl)-N-[(2S)-3-(4′-{[4-(2-hydroxyethyl)piperazin-1-yl]carbonyl}biphenyl-3-yl)-1-oxo-1-{[4-(1H-tetrazol-5-yl)phenyl]amino}propan-2-yl]cyclohexanecarboxamide hydrochloride] returned a half-inhibitory concentration (IC50) against human factor XIa of 6.9 nM. In the assay on human and animal plasma, this compound showed an aPTT of 0.44 µmol/L.
`Cc1ccc(S(=O)(=O)NCc2ccccc2)cc1-c1cccc(C[C@H](NC(=O)[C@H]2CC[C@H](CN)CC2)C(=O)Nc2ccc3[nH]c(=O)[nH]c3c2)c1` [Example 12, trans-4-(Aminomethyl)-N-{(2S)-3-[5′-(benzylsulphamoyl)-2′-methylbiphenyl-3-yl]-1-oxo-1-[(2-oxo-2,3-dihydro-1H-benzimidazol-5-yl)amino]propan-2-yl}cyclohexanecarboxamide hydrochloride] registered a 50% inhibitory concentration (IC50) on human factor XIa of 3.2 nM. Besides, in the assay on human and animal plasma, the aPTT turned out to be 0.3 µmol/L.
As for `NC[C@H]1CC[C@H](C(=O)N[C@@H](Cc2cccc(-c3cnc(NC4CC4)nc3)c2)C(=O)Nc2ccc(-c3nnn[nH]3)cc2)CC1` [Example 82, N-alpha-{[trans-4-(Aminomethyl)cyclohexyl]carbonyl}-3-[2-(cyclopropylamino)pyrimidin-5-yl]-N-[4-(1H-tetrazol-5-yl)phenyl]-L-phenylalaninamide hydrochloride], the IC50 against human factor XIa is 3.4 nM. For the same compound, the aPTT in the assay with human and animal plasma is 0.14 µmol/L.
Compound `CN1CCN(C(=O)c2cccc(-c3cccc(C[C@H](NC(=O)[C@H]4CC[C@H](CN)CC4)C(=O)Nc4ccc(-c5nnc(Cl)[nH]5)cc4)c3)c2)CC1` [Example 24, trans-4-(Aminomethyl)-N-[(2S)-1-{[4-(3-chloro-4H-1,2,4-triazol-5-yl)phenyl]amino}-3-{3′-[(4-methylpiperazin-1-yl)carbonyl]biphenyl-3-yl}-1-oxopropan-2-yl]cyclohexanecarboxamide hydrochloride] yielded an IC50 against human factor XIa of 4.3 nM. This compound also returned an aPTT in the assay on human and animal plasma of 0.15 µmol/L.
Consider `NC[C@H]1CC[C@H](C(=O)N[C@@H](Cc2cccc(-c3ccc(C(=O)NC4CCNCC4)cc3)c2)C(=O)Nc2ccc3cn[nH]c3c2)CC1` [Example 51, 3′-[(2S)-2-({[trans-4-(Aminomethyl)cyclohexyl]carbonyl}amino)-3-(1H-indazol-6-ylamino)-3-oxopropyl]-N-(piperidin-4-yl)biphenyl-4-carboxamide hydrochloride], for which the IC50 against human factor XIa came out at 36 nM. Moreover, the aPTT in the assay on human and animal plasma was determined as 0.33 µmol/L.
The corresponding values for `NC[C@H]1CC[C@H](C(=O)N[C@@H](Cc2cccc(-c3cc(C(N)=O)ccc3Cl)c2)C(=O)Nc2ccc(-c3nnn[nH]3)cc2)CC1` [Example 38, 3′-[(2S)-2-({[trans-4-(Aminomethyl)cyclohexyl]carbonyl}amino)-3-oxo-3-{[4-(1H-tetrazol-5-yl)phenyl]amino}propyl]-6-chlorobiphenyl-3-carboxamide hydrochloride] are 4.8 nM and 0.2 µmol/L.
The corresponding values for `CCN(CC)CCNC(=O)c1cccc(-c2cccc(C[C@H](NC(=O)[C@H]3CC[C@H](CN)CC3)C(=O)Nc3ccc(-c4nnn[nH]4)cc3)c2)c1` [Example 34, 3′-[(2S)-2-({[trans-4-(Aminomethyl)cyclohexyl]carbonyl}amino)-3-oxo-3-{[4-(1H-tetrazol-5-yl)phenyl]amino}propyl]-N-[2-(diethylamino)ethyl]biphenyl-3-carboxamide hydrochloride] are 8.6 nM and 0.26 µmol/L.
Taken in the same sequence, the figures for `Cc1cc(C(=O)NC2C3CNCC32)ccc1-c1cccc(C[C@H](NC(=O)C2CCC(CN)CC2)C(=O)Nc2ccc(-c3nnn[nH]3)cc2)c1` (stereo partly drawn) [Example 33, 3′-[(2S)-2-({[trans-4-(Aminomethyl)cyclohexyl]carbonyl}amino)-3-oxo-3-{[4-(1H-tetrazol-5-yl)phenyl]amino}propyl]-N-(3-azabicyclo[3.1.0]hex-6-yl)-2-methylbiphenyl-4-carboxamide hydrochloride] were 7.6 nM and 0.08 µmol/L.
